Results on one compound are retold here after ChEMBL document CHEMBL5154721, “Discovery of HDAC6-Selective Inhibitor NN-390 with in Vitro Efficacy in Group 3 Medulloblastoma” (J Med Chem, 2022).

SMILES strings stand for the structures.

For orientation: half-life means the time needed for the level to fall by half in the phase considered. In general, IC50 refers to the point on the concentration scale where inhibition reaches its midpoint. What is called AUC(0-t) is the area under the concentration-time curve up to a stated or last time point. A lower AUC(0-t) goes with less exposure. As a reminder, the AUC(0-inf) is total exposure, with the tail of the curve extrapolated. Lower therefore signals less exposure. Usually Cmax stands for the maximum level reached in the sampled fluid or tissue.

A short description of data set [1]: Half life in CD-1 mouse at 20 mg/kg, ip. The conditions noted are these: in vivo. Type of data set: ADME, organism-based.
A short description of the next data set: in vitro. Particulars: human, MRC9 cells.
The nature of data set [2]: AUClast in CD-1 mouse at 20 mg/kg, ip. Type of data set: ADME, organism-based. Also noted: time 0 - last, dose 20 mg/kg, route ip. Particulars: in vivo.
A short description of data set [3]: AUCinfinity in CD-1 mouse at 20 mg/kg, ip. In kind it is ADME, organism-based. Also noted: time infinity, dose 20 mg/kg, route ip. Particulars: in vivo.
Data set [4] is described as follows: AUC/D in CD-1 mouse at 20 mg/kg, ip. Type of data set: ADME, organism-based. Particulars: in vivo.
The next data set has as its system MM1.S. Description: Cytotoxicity against human MM1.S cells assessed as inhibition of cell growth incubated for 72 hrs measured by spectrophotometer analysis. In kind it is functional, cell-based.
Data set [5] in a line: Cmax in CD-1 mouse at 20 mg/kg, ip. In kind it is ADME, organism-based. Also noted: dose 20 mg/kg, route ip. Particulars: in vivo.

`CCCCN(Cc1ccc(C(=O)NO)cc1)C(=O)Nc1ccccc1` [NEXTURASTAT A] gave a half-life in data set [1] of 1.9 h. For the same compound, the IC50 at 72 h in the data set “in vitro” is > 20000 nM. The same compound returned an area under the curve AUC(0-t) in data set [2] of 2520 ng·h/mL. Moreover, in data set [3], the total exposure AUC(0-inf) stood at 2550 ng·h/mL. The same compound returned an AUC/dose in data set [4] of 126 ng·h/mL. In addition, the IC50 in the data set with MM1.S stood at 1760 nM. In data set [5], this compound had a Cmax of 750 ng/mL.
